# Assay results reported in patent US9394544B2, “Ameliorating oxidative stress in neurodegenerative disease via Nox1 targeting” (University of Central Florida Research Foundation, Inc., priority 2013, dated 2016).
# Legend:
# Nox1 = Nox1 expression (RT-PCR, immunoblot) in N27 cells exposed to toxins; format: cell-based, rat; details: N27 cells
# Excerpt: The NADPH oxidase is a multi-subunit enzyme that consists of the catalytic subunits (Nox isoforms) together with the regulatory subunits including p22phox, p47phox, p40phox, p67phox, Nox organizer 1 (Noxo1), Nox activator 1 (Noxa1), and small GTPase Rac1. In order to test whether dopaminergic (DA) cells are equipped with the NOX components, N27, a well-established rat DA cell line was examined (Prasad et al. 1994). The mRNAs encoding each Nox isoform and regulatory subunits were detected using RT-PCR. Since transcriptional induction of Nox1 and Nox4 has already been reported in several tissues under a variety of stimuli, transcripts were determined in both nontreated and 6-hydroxydopamine (6-OHDA), a DA neurodegenerative compound, treated DA cells. ROS generation as induced by 6-OHDA (100 μM) and subsequent cell death was observed. All Nox isoforms (Nox1, Nox2, Nox4, Duox1 and Duox2) except Nox3 and Nox5 were detected (FIG. 1A). […] Mitochondria, which have long been considered as a major source of ROS, play a key role in Nox1-mediated superoxide generation (Desouki et al. 2005). […] Cytoplasmic regulatory subunits including p47phox, Noxa1, and Noxo1 were constitutively expressed in DA cells as well (FIG. 1A). Noxa1 and Noxo1 are homologues of p67phox and p47phox, respectively. They are involved in Nox1-mediated superoxide generation (Banfi et al. 2003, Geiszt et al. 2003). […] The activation of a small GTPase Rac1 is indispensable for Nox1 and Nox2 activation (Bokoch 2002). GTP-bound active Rac1 was measured in DA cells treated with 6-OHDA for various duration from 1 h to 6 h.
# Total RNA was extracted from N27 cells using Trizol reagent (Invitrogen, Carlsbad, Calif.). Reverse transcription was performed for 1 h at 42° C. with 1 μg of total RNA using 20 unit/μl of AMV reverse transcriptase (Roche Applied Science, Indianapolis, Ind.), and oligo-p(dT)15 as a primer. The samples were then heated at 99° C. for 5 min to terminate the reaction. The cDNA obtained from 1 μg total RNA was used as a template for PCR amplification. Oligonucleotide primers were designed based on Genebank entries for rat NOX1 (sense, 5′-[…]-3′ SEQ ID NO. 1; antisense, 5′-[…]-3′ SEQ ID NO. 2), rat NOX2 (sense, 5′-[…]-3′ SEQ ID NO. 3; antisense, 5′-[…]-3′ SEQ ID NO. 4), rat NOX4 (sense, 5′-[…]-3′ SEQ ID NO. 5; antisense, 5′-[…]-3′ SEQ ID NO. 6), rat NOXA1 (sense, 5′-[…]-3′ SEQ ID NO. 7; antisense, 5′-[…]-3′ SEQ ID NO. 8), rat NOXO1 (sense, 5′-[…]-3′ SEQ ID NO. 9; antisense, 5′-[…]-3′ SEQ ID NO. 10), rat p47 (sense, 5′-[…]-3′ SEQ ID NO 11; antisense, 5′-[…]-3′ SEQ ID NO. 12), rat Duox1 (sense, 5′-[…]-3′ SEQ ID NO. 13; antisense, 5′-[…]-3′SEQ ID NO. 14), rat Duox2 (sense, 5′-[…]-3′ SEQ ID NO. 15; antisense, 5′-[…]-3′ SEQ ID NO. 16) and rat GAPDH (sense, 5′-[…]-3′ SEQ ID NO. 17; antisense, 5′-[…]-3′ SEQ ID NO. 18). PCR mixes contained 10 μl of 2×PCR buffer, 1.25 mM of each dNTP, 10 pmol of each forward and reverse primer, and 2.5 units of Taq polymerase in the final volume of 20 μl. Amplification was performed in 35 cycles at 60° C., 30 sec; 72° C., 1 min; 94° C., 30 sec. After the last cycle, all samples were incubated for an additional 10 min at 72° C. for final extension step. PCR fragments were analyzed on 1.2% agarose gel in 0.5×TAE containing ethidium bromide. Amplification of GAPDH, a relatively invariant internal reference RNA, was performed in parallel, and cDNA amounts were normalized against GAPDH mRNA levels. The primer set specifically recognized only the gene of interest as indicated by amplification of a single band of expected size. […]
# Rac1 = Rac1 activation assay (active GTPase pull-down) in N27 cells; format: cell-based, rat; details: 6 h post administration
# Excerpt: The NADPH oxidase is a multi-subunit enzyme that consists of the catalytic subunits (Nox isoforms) together with the regulatory subunits including p22phox, p47phox, p40phox, p67phox, Nox organizer 1 (Noxo1), Nox activator 1 (Noxa1), and small GTPase Rac1. In order to test whether dopaminergic (DA) cells are equipped with the NOX components, N27, a well-established rat DA cell line was examined (Prasad et al. 1994). The mRNAs encoding each Nox isoform and regulatory subunits were detected using RT-PCR. Since transcriptional induction of Nox1 and Nox4 has already been reported in several tissues under a variety of stimuli, transcripts were determined in both nontreated and 6-hydroxydopamine (6-OHDA), a DA neurodegenerative compound, treated DA cells. ROS generation as induced by 6-OHDA (100 μM) and subsequent cell death was observed. All Nox isoforms (Nox1, Nox2, Nox4, Duox1 and Duox2) except Nox3 and Nox5 were detected (FIG. 1A). […] Mitochondria, which have long been considered as a major source of ROS, play a key role in Nox1-mediated superoxide generation (Desouki et al. 2005). […] Cytoplasmic regulatory subunits including p47phox, Noxa1, and Noxo1 were constitutively expressed in DA cells as well (FIG. 1A). Noxa1 and Noxo1 are homologues of p67phox and p47phox, respectively. […] GTP-bound active Rac1 was measured in DA cells treated with 6-OHDA for various duration from 1 h to 6 h. […]
structure (smiles),measurement,setting,value
"NCCc1cc(O)c(O)cc1O [6-OHDA, 6-hydroxydopamine]",Nox1 mRNA (RT-PCR),"Nox1; 100 μM, 6 h",robustly induced
same,Nox1 expression (immunoblot),Nox1; 24 h,induced Nox1 expression in a dose-dependent manner
same,GTP-bound active Rac1,Rac1,Rac1 activation was observed
